Source: paper PMC12148441, “The mechanism of peptidoglycan O-acetylation in Gram-negative bacteria typifies bacterial MBOAT-SGNH acyltransferases [drawing 1]” (The Journal of Biological Chemistry, 2025)

Molecular target: T1, NgPatBΔ100 (Neisseria gonorrhoeae, UniProt Q5F966)
T1 construct: gene NGO_0533; SGNH domain (Δ100, N-terminal truncation), E. coli BL21(DE3), His-SUMO tag removed by Ulp1; catalytic Ser133, His305, Asp302
Assay: transacetylation of chitopentaose
Assay type: biochemical
Details: acetyl donor (1 mM acetyl-amino acids); chitopentaose acceptor; 50 mM sodium phosphate pH 7.0

T1 sequence (Q5F966 entry or part of it, stated change not applied): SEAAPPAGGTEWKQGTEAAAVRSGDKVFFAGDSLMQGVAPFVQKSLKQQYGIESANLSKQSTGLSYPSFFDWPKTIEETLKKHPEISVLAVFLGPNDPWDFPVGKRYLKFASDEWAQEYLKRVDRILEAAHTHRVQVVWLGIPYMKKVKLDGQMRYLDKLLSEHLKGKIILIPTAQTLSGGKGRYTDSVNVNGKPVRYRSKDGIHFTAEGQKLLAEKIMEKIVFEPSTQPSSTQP

## CC(=O)Oc1ccc(C[C@H](N)C(=O)O)cc1 [O-acetyl-Tyr]
  transacetylation of chitopentaose: O-acetyl-Tyr, but not O-acetyl-Ser, were sufficient for transacetylation of chitopentaose by NgPatB
